# Data: patent US20120064008A1, “COMPOSITIONS FOR THE TREATMENT OF METASTATIC CANCER AND METHODS OF USE THEREOF” (priority 2009, published 2012)
# “Also recorded” adds a separate entry of the source. Where two headings read alike, the source gives them in different places.
# Key:
# [1] = tested on: AT6.1 Dunning rat prostate carcinoma; test: Survival in intravenous AT6.1 Dunning rat prostate carcinoma lung metastasis model; assay type: in vivo, nu/nu mice; conditions: for average survival time: FIG. 5 (carrier only 20.4 days); for survival: 100 mg/kg, FIG. 6 (control 24.25 days)
# Procedure: Many anti-tumor drugs are tested only for their ability to prevent primary tumor growth or to prevent the dissemination of metastatic cells. To accomplish this, the drug is usually administered shortly after the primary tumor is established. […] The benzimidazoles described herein were evaluated in an experimental metastases model in the lungs of nude mice following tail-vein injection of Dunning rat AT6.1 prostate carcinoma. […] In order to achieve greater bioavailability, we first solubilized benzimidazoles in DNTC formulation and then diluted with saline prior to injection.
# Inbred male nu/nu mice age 6-8 weeks were obtained from Massachusetts General Hospital (Boston, Mass.). The mice were virus antibody free, age and weight matched for experimental use and fed with a balanced rodent diet ad libitum. AT6.1 Dunning rat prostate cells were maintained as described above. 1×10^4 log-phase cells were injected via tail vein in 0.1 mL Hanks solution. Vehicle or drug treatment was started on day 5 post inoculation and given three times a week (Monday, Wednesday and Friday) via intraperitoneal injection in 0.5 mL volume. Benzimidazole drugs were prepared in the combination carrier [DMSO (12.5%), NMP (37.5%), TWEEN®-80 (25%) and CrEL (25%)] and diluted in saline. Vehicle control was prepared by diluting the combination carrier with saline.
# During the course of treatment, the mice were monitored for toxicity by measuring body weight. […] Animals were euthanized with CO2 and tissues were collected for further analysis. The animals and experiments used in these studies were approved by the institutional animal care committee according to Children's Hospital Boston ARCH guidelines.
# To distinguish differences in survival between these groups, the percent increase in life span (ILS %), defined as the percent increase in the mean time to death of drug-treated animals over the corresponding time to death for vehicle-treated mice, was calculated.
# [2] = tested on: DU145 human prostate cancer cells; test: Cyquant cell viability assay, DU145; assay type: cell-based; conditions: read-out: ED50 DU145
# Procedure: The cytotoxic effects of paclitaxel, fenbendazole, and albendazole were compared in paclitaxel-resistant PC3-TR and DU145-TR prostate cancer cells with their paclitaxel-sensitive counterparts, PC3 and DU145 cells. Cells were treated for 72 hours with vehicle, paclitaxel, fenbendazole or albendazole in various doses. Cell viability was measured using Cyquant assay, and percent control was calculated by dividing the fluorescent reading from drug-treated cells with those from vehicle-treated cells, indicating percentage of cell survival.
# DU145 cells = test: Normalized mitotic index, DU145; assay type: cell-based, human; conditions: 1 μM
# PC-3MLN4 cells [3] = test: Normalized mitotic index (histone H3 phospho-Serine-28), PC-3MLN4; assay type: cell-based; conditions: Homo sapiens, read-out: Normalized mitotic index PC-3MLN4, at 1 μM; normalized against vehicle-treated cells
# Description: The mitotic index for each agent was normalized against those obtained from vehicle-treated cells, and compared with the activity of paclitaxel, a known inducer of mitotic arrest.
# PC-3MLN4 cells [4] = test: Experimental bone metastasis model, PC-3MLN4 cells expressing luciferase, intraosseous; assay type: in vivo, immunocompromised mice; conditions: 100 mg/kg for two weeks
# Procedure: Using the metastatic prostate cancer PC-3MLN4 cells that expressed luciferase, the anti-tumor effects of benzimidazoles in a model of experimental bone metastasis were investigated. Cells were inoculated directly into a single tibia of immunocompromised mice via intraosseous injection. When bone lesions were confirmed to be growing via bioluminescent imaging, mice were randomized and treated with vehicle or with 100 mg/kg albendazole for two weeks. […] There was a significant difference in average luciferase signal between the two groups over the course of treatment (P<0.05).
# At the end of study, the anatomical and radiographic characteristics of the bone lesions were evaluated with X-ray and micro-computerized tomography (CT) imaging.
# Using the metastatic prostate cancer PC-3MLN4 cells that expressed luciferase, the anti-tumor effects of benzimidazoles in a model of experimental bone metastasis were investigated. Cells were inoculated directly into a single tibia of immunocompromised mice via intraosseous injection. When bone lesions were confirmed to be growing via bioluminescent imaging, mice were randomized and treated with vehicle or with 100 mg/kg albendazole for two weeks. […] There was a significant difference in average luciferase signal between the two groups over the course of treatment (P<0.05) (see FIG. 13).
# At the end of study, the anatomical and radiographical characteristics of the bone lesions were evaluated with X-ray and micro-computerized tomography (CT) imaging.
# [5] = tested on: PC3M human prostate cancer cells; test: Cyquant cell viability assay, PC3M; assay type: cell-based; conditions: for EC50: Homo sapiens, PC-3M, read-out: ED50 PC3M DMSO
# Procedure: (§1) PC3M and PC3MLN4 cells were treated with vehicle, fenbendazole in DMSO, and fenbendazole in DMSO/NMP/TWEEN®-80/CrEL in varying doses for 72 hours. Cell viability assays using Cyquant reagent (Invitrogen, C7026) were performed as described in the literature. […] cells were seeded in 96 well plates overnight, before treated with either vehicle or benzimidazole solubilized in DMSO alone or in DMSO (12.5%)/NMP ([…])/TWEEN®-80 (25%)/Cr-EL (25%) for 72 hours. Cells were harvested by removing the media, washing once with phosphate buffered saline (PBS) and freezing at −80° C. for overnight. After thawing to room temperature, Cyquant reagent were prepared and added to the wells and the fluorescence intensity were measured with a spectrometer at 485 nm. Percent control was calculated by dividing the reading from drug-treated cells with the reading from vehicle-treated cells.
# (§2) ED50 values were calculated from dose-effect analysis performed with Compusyn using data from the Cyquant cell viability assays.
# (§3) ED50 values were calculated from dose-effect analysis performed with Compusyn using data from the Cyquant cell viability assays. All benzimidazoles drugs were solubilized in the combination carrier.
# [6] = tested on: PC3MLN4 human prostate cancer cells; test: Cyquant cell viability assay, PC3MLN4; conditions: for EC50: Homo sapiens, 72 h, read-out: ED50 PC3MLN4 DMSO
# Procedure: as §1, §2, §3
# AT6.1 lung metastases = test: Ki-67 and caspase-3 staining of lung tumor sections; assay type: in vivo, mice; conditions: 50 mg/kg, combination carrier; FIG. 10
# Procedure: To investigate whether benzimidazoles treatment affects cell proliferation and apoptosis in vivo, immunohistochemical analysis of the cell proliferation marker, Ki-67 and of the apoptotic marker, activated caspase-3 was performed on mouse lung sections from each group.
# Tumor cells in the lungs of rats treated with saline and 50 mg/kg fenbendazole (formulation in the combination carrier) were analyzed by Ki-67 and caspase-3 antibody staining. Tissues were collected and fixed in formalin before processed for paraffin embedding. Tissue sections were then processed for Ki-67 and caspase-3 antibody staining, using the protocol established at Dana Farber Cancer Institute/Harvard Cancer Center Research Pathology Core. At least five random 200× magnification images were photographed from each animal. Distinct and strong nuclear Ki67 staining of tumor cells were counted using Image J software (NIH, Bethesda, […].).
# [7] = 100 mg/kg i.p. three times a week, over vehicle-treated mice
compound,measurement,setting,value
"CCCSc1ccc2nc(NC(=O)OC)[nH]c2c1 [Albendazole, albendazole]",average survival time,[1]; 50 mg/kg i.p. three times a week from day 5,24.4 days
same,average survival time,[1]; 100 mg/kg i.p. three times a week from day 5,32 days
same,percent increase in life span (ILS %),[1]; [7],59.7%
same,survival,[1],38.75 days
same,percent increase in life span (ILS %),[1]; 250 mg/kg three times a week,64%
same,EC50,"[2]; DU-145, 72 h",2.41 µM
same,Normalized mitotic index (6 hours) DU145,DU145 cells,1.93
same,fold induction at 1 µM,PC-3MLN4 cells [3],1.8 to 2
same,tumor growth (luciferase signal) compared to vehicle,PC-3MLN4 cells [4],reduced tumor growth
same,Ki-67 labeling index of bone lesions,PC-3MLN4 cells [4]; P<0.005,reduction
same,apoptotic index of bone lesions (activated caspase-3 staining),PC-3MLN4 cells [4]; P<0.005,increase
same,bone integrity (X-ray and micro-CT imaging),PC-3MLN4 cells [4]; end of study,bone integrity was maintained
same,EC50,[5]; 72 h,4.84 µM
same,EC50,[6],4.68 µM
same,cytotoxicity in the combination carrier compared to DMSO alone,"[6]; PC3MLN4 cells, 72 hours",greater cytotoxicity
same,cytotoxicity in highly metastatic cells relative to PC-3M,[6]; PC-3MLN4 (b184 also AT6.1) relative to PC-3M,greater cytotoxicity
"COC(=O)Nc1nc2ccc(Sc3ccccc3)cc2[nH]1 [Fenbendazole, fenbendazole]",percent increase in life span (ILS %),[1]; [7],45.3%
same,survival,[1],35.25 days
same,EC50,"[2]; DU-145, 72 hours",10.7 µM
same,Normalized mitotic index (6 hours) DU145,DU145 cells,1.47
same,EC50,"[5]; solubilized in DMSO alone, 72 hours",5.4 µM
same,"reduction in ED50, DNTC compared to DMSO, PC-3M",[5]; solubilized in DNTC vs DMSO,~2 fold
same,tumor cell proliferation (Ki67 staining) compared to control,AT6.1 lung metastases,less proliferation of tumor cells; also recorded: marked reduction in tumor cell proliferation
same,cytotoxicity in the combination carrier compared to DMSO alone,[6],greater cytotoxicity
same,EC50,[6],1.93 µM
same,"reduction in ED50, DNTC compared to DMSO, PC-3MLN4",[6]; solubilized in DNTC vs DMSO,~2 fold
